Patent publication US8119628B2, “Pyrrolidine fused indolobenzadiazepine HCV NS5B inhibitors” (Bristol-Myers Squibb Company, priority 2008, dated 2012)

Tests used:
[1] = molecular target: T1, HCV NS5B (Hepatitis C virus genotype 1b, UniProt Q9WMX2); experiment: Modified HCV NS5B RdRp enzyme assay (preincubation protocol); format: biochemical; conditions: HCV NS5B RdRp genotype 1b
T1 construct: The protein was expressed with an 18 amino acid C-terminal truncation to enhance the solubility; made in house; host or cells: E. coli BL21(DE3)
Procedure: HCV NS5B RdRp cloning, expression, and purification. The cDNA encoding the NS5B protein of HCV, genotype 1b, was cloned into the pET21a expression vector. The protein was expressed with an 18 amino acid C-terminal truncation to enhance the solubility. The E. coli competent cell line BL21(DE3) was used for expression of the protein. Cultures were grown at 37° C. for ˜4 hours until the cultures reached an optical density of 2.0 at 600 nm. The cultures were cooled to 20° C. and induced with 1 mM IPTG. Fresh ampicillin was added to a final concentration of 50 μg/ml and the cells were grown overnight at 20° C.
Cell pellets (3 L) were lysed for purification to yield 15-24 […] of purified NS5B. The lysis buffer consisted of 20 mM Tris-HCl, pH 7.4, 500 mM NaCl, 0.5% triton X-100, 1 mM DTT, 1 mM EDTA, 20% glycerol, 0.5 mg/ml lysozyme, 10 mM MgCl2, 15 ug/ml deoxyribonuclease I, and Complete TM protease inhibitor tablets (Roche). After addition of the lysis buffer, frozen cell pellets were resuspended using a tissue homogenizer. To reduce the viscosity of the sample, aliquots of the lysate were sonicated on ice using a microtip attached to a Branson sonicator. The sonicated lysate was centrifuged at 100,000×g for 1 hr at 4° C. and filtered through a 0.2 μm filter unit (Corning).
The protein was purified using three sequential chromatography steps: Heparin sepharose CL-6B, polyU sepharose 4B, and Hitrap SP sepharose (Pharmacia). The chromatography buffers were identical to the lysis buffer but contained no lysozyme, deoxyribonuclease I, MgCl2 or protease inhibitor and the NaCl concentration of the buffer was adjusted according to the requirements for charging the protein onto the column. Each column was eluted with a NaCl gradient which varied in length from 5-50 column volumes depending on the column type. After the final chromatography step, the resulting purity of the enzyme is >90% based on SDS-PAGE analysis. The enzyme was aliquoted and stored at −80° C.
Standard HCV NS5B RdRp enzyme assay. HCV RdRp genotype 1b assays were run in a final volume of 60 μl in 96 well plates (Costar 3912). The assay buffer is composed of 20 mM Hepes, pH 7.5, 2.5 mM KCl, 2.5 mM MgCl2, 1 mM DTT, 1.6 U RNAse inhibitor (Promega N2515), 0.1 mg/ml BSA (Promega R3961), and 2% glycerol. All compounds were serially diluted (3-fold) in DMSO and diluted further in water such that the final concentration of DMSO in the assay was 2%. HCV RdRp genotype 1b enzyme was used at a final concentration of 28 nM. A polyA template was used at 6 nM, and a biotinylated oligo-dT12 primer was used at 180 nM final concentration. Template was obtained commercially (Amersham 27-4110). Biotinylated primer was prepared by Sigma Genosys. 3H-UTP was used at 0.6 μCi (0.29 μM total UTP). Reactions were initiated by the addition of enzyme, incubated at 30° C. for 60 min, and stopped by adding 25 μl of 50 mM EDTA containing SPA beads (4 μg/μl, Amersham RPNQ 0007). Plates were read on a Packard Top Count NXT after >1 hr incubation at room temperature.
Modified HCV NS5B RdRp enzyme assay. A modified enzyme assay was performed essentially as described for the standard enzyme assay except for the following: The biotinylated oligo dTl2 primer was precaptured on streptavidin-coated SPA beads by mixing primer and beads in assay buffer and incubating at room temperature for one hour. Unbound primer was removed after centrifugation. The primer-bound beads were resuspended in 20 mM Hepes buffer, pH 7.5 and used in the assay at final concentrations of 20 nM primer and […] beads. Order of addition in the assay: enzyme (14 nM) was added to diluted compound followed by the addition of a mixture of template (0.2 nM), 3H-UTP (0.6 μCi, 0.29 μM), and primer-bound beads, to initiate the reaction; concentrations given are final. Reactions were allowed to proceed for 4 hours at 30° C.
IC50 values for compounds were determined using seven different. […]

[2] = system: HCV replicon cells; experiment: HCV FRET assay in HCV replicon cells; format: cell-based; conditions: Hepatitis C virus
Source text: FRET Assay Preparation. To perform the HCV FRET screening assay, 96-well cell culture plates were used. The FRET peptide (Anaspec, Inc.) (Taliani et al., Anal. Biochem. 1996, 240, 60-67) contains a fluorescence donor, EDANS, near one end of the peptide and an acceptor, DABCYL, near the other end. The fluorescence of the peptide is quenched by […] resonance energy transfer (RET) between the donor and the acceptor, but as the NS3 protease cleaves the peptide the products are released from RET quenching and the fluorescence of the donor becomes apparent. The assay reagent was made as follows: 5× cell Luciferase cell culture lysis reagent from Promega (#E153A) diluted to 1× with dH2O, NaCl added to 150 mM final, the FRET peptide diluted to 20 uM final from a 2 mM stock.
To prepare plates, HCV replicon cells, with or without a Renilla luciferase reporter gene, were trypsinized and placed into each well of a 96-well plate with titrated test compounds added in columns 3 through 12; columns 1 and 2 contained a control compound (HCV protease inhibitor), and the bottom row contained cells without compound. The plates were then placed in a CO2 incubator at 37° C.
Assays. Subsequent to addition of the test compounds described above (FRET Assay Preparation), at various times the plate was removed and Alamar blue solution (Trek Diagnostics, #00-100) was added per well as a measure of cellular toxicity. After reading in a Cytoflour 4000 instrument (PE Biosystems), plates were rinsed with PBS and then used for FRET assay by the addition of 30 ul of the FRET peptide assay reagent described above (FRET Assay Preparation) per well. The plate was then placed into the Cytoflour 4000 instrument which had been set to 340 excite/490 emission, automatic mode for 20 cycles and the plate read in a kinetic mode. Typically, the signal to noise using an endpoint analysis after the reads was at least three-fold. Alternatively, after Alamar blue reading, plates were rinsed with PBS, 50 ul of DMEM (high glucose) without phenol red was added and plates were then used for luciferase assay using the Promega Dual-Glo Luciferase Assay System.
Compound analysis was determined by quantification of the relative HCV replicon inhibition and the relative cytotoxicity values. To calculate cytoxicity values, the average Alamar Blue fluorescence signals from the control wells were set as 100% non-toxic. The individual signals in each of the compound test wells were then divided by the average control signal and multiplied by 100% to determine […]. To calculate the HCV replicon inhibition values, an average background value was obtained from the two wells containing the highest amount of HCV protease inhibitor at the end of the assay period. These numbers were similar to those obtained from naïve Huh-7 cells.
The background numbers were then subtracted from the average signal obtained from the control wells and this number was used as 100% activity. The individual signals in each of the compound test wells were then divided by the averaged control values after background subtraction and multiplied by 100% to determine percent activity. EC50 values for a protease inhibitor titration were calculated as the concentration which caused a 50% reduction in FRET or luciferase activity. The two numbers generated for the compound plate, percent cytoxicity and percent activity were used to determine compounds of interest for further analysis.

T1 sequence (Q9WMX2 2420-2992): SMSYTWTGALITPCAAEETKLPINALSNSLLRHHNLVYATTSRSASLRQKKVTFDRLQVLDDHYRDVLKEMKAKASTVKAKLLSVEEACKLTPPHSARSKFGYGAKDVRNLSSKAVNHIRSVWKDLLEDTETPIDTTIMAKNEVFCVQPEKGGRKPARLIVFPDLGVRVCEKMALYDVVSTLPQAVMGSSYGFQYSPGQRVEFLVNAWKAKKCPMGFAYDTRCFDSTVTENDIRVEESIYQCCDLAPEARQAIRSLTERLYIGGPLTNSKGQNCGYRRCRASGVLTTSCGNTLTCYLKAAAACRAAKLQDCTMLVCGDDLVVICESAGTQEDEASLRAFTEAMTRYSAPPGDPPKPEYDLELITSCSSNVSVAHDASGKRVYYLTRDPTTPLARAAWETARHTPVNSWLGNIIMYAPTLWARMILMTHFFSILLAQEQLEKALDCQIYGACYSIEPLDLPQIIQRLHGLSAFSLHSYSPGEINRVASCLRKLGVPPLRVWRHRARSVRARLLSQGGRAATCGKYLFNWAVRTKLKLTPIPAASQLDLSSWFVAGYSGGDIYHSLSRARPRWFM

`COc1ccc2c(c1)C1CN(Cc3ccccc3)CC1(C(=O)N1C[C@@H](C)O[C@@H](C)C1)Cn1c-2c(C2CCCCC2)c2ccc(C(=O)NS(=O)(=O)N(C)C)cc21` (mixture of isomers) [Example 1, rac-(3aR,14bR)-2-benzyl-10-cyclohexyl-3a-(((2S,6R)-2,6-dimethyl-4-morpholinyl)carbonyl)-N-(dimethylsulfamoyl)-13-methoxy-1,2,3,3a,4,14b-hexahydroindolo[2,1-a]pyrrolo[3,4-d][2]benzazepine-7-carboxamide] gave an IC50 [1] of 430 nM and an EC50 [2] of 210 nM.
`COc1ccc2c(c1)C1CNCC1(C(=O)N1C[C@@H](C)O[C@@H](C)C1)Cn1c-2c(C2CCCCC2)c2ccc(C(=O)NS(=O)(=O)N(C)C)cc21` (mixture of isomers) [Example 2, rac-(3aR,14bR)-10-cyclohexyl-3a-(((2S,6R)-2,6-dimethyl-4-morpholinyl)carbonyl)-N-(dimethylsulfamoyl)-13-methoxy-1,2,3,3a,4,14b-hexahydroindolo[2,1-a]pyrrolo[3,4-d][2]benzazepine-7-carboxamide] gave an IC50 ([1]; reported as class) of 20 to 500 nM and an EC50 ([2]; reported as class) of 20 to 500 nM.
For `COc1ccc2c(c1)C1CN(C)CC1(C(=O)N1C[C@@H](C)O[C@@H](C)C1)Cn1c-2c(C2CCCCC2)c2ccc(C(=O)NS(=O)(=O)N(C)C)cc21` (mixture of isomers) [Example 3, rac-(3aR,14bR)-10-Cyclohexyl-3a-(((2S,6R)-2,6-dimethyl-4-morpholinyl)carbonyl)-N-(dimethylsulfamoyl)-13-methoxy-2-methyl-1,2,3,3a,4,14b-hexahydroindolo[2,1-a]pyrrolo[3,4-d][2]benzazepine-7-carboxamide], the IC50 ([1]; reported as class) was 20 to 500 nM and the EC50 ([2]; reported as class) was 20 to 500 nM.
`COc1ccc2c(c1)C1CN(C(C)=O)CC1(C(=O)N1C[C@@H](C)O[C@@H](C)C1)Cn1c-2c(C2CCCCC2)c2ccc(C(=O)NS(=O)(=O)N(C)C)cc21` (mixture of isomers) [Example 4, rac-(3aR,14bR)-2-Acetyl-10-cyclohexyl-3a-(((2S,6R)-2,6-dimethyl-4-morpholinyl)carbonyl)-N-(dimethylsulfamoyl)-13-methoxy-1,2,3,3a,4,14b-hexahydroindolo[2,1-a]pyrrolo[3,4-d][2]benzazepine-7-carboxamide] gave an IC50 ([1]; reported as class) of 20 to 500 nM and an EC50 ([2]; reported as class) of 20 to 500 nM.
Work on `COc1ccc2c(c1)C1CN(C(C)C)CC1(C(=O)N1C[C@@H](C)O[C@@H](C)C1)Cn1c-2c(C2CCCCC2)c2ccc(C(=O)NS(=O)(=O)N(C)C)cc21` (mixture of isomers) [Example 5, rac-(3aR,14bR)-10-Cyclohexyl-3a-(((2S,6R)-2,6-dimethyl-4-morpholinyl)carbonyl)-N-(dimethylsulfamoyl)-2-isopropyl-13-methoxy-1,2,3,3a,4,14b-hexahydroindolo[2,1-a]pyrrolo[3,4-d][2]benzazepine-7-carboxamide] yielded an IC50 [1] of 200 nM and an EC50 [2] of 120 nM.
In the case of `COc1ccc2c(c1)C1CN(Cc3ccccc3)CC1(C(=O)N(C)C)Cn1c-2c(C2CCCCC2)c2ccc(C(=O)NS(=O)(=O)N(C)C)cc21` (racemic) [Example 6, rac-(3aR,14bR)-2-benzyl-10-cyclohexyl-N^7-(dimethylsulfamoyl)-13-methoxy-N^3a,N^3a-dimethyl-1,2,3,14b-tetrahydroindolo[2,1-a]pyrrolo[3,4-d][2]benzazepine-3a,7(4H)-dicarboxamide], the IC50 ([1]; reported as class) is reported as 20 to 500 nM and the EC50 ([2]; reported as class) is reported as 20 to 500 nM.
For `COc1ccc2c(c1)C1CNCC1(C(=O)N(C)C)Cn1c-2c(C2CCCCC2)c2ccc(C(=O)NS(=O)(=O)N(C)C)cc21` (racemic) [Example 7, rac-(3aR,14bR)-10-cyclohexyl-N^7-(dimethylsulfamoyl)-13-methoxy-N^3a,N^3a-dimethyl-1,2,3,14b-tetrahydroindolo[2,1-a]pyrrolo[3,4-d][2]benzazepine-3a,7(4H)-dicarboxamide], the IC50 [1] was 41 nM and the EC50 [2] was 22 nM.
In the case of `COc1ccc2c(c1)C1CN(C(=O)N(C)C)CC1(C(=O)N(C)C)Cn1c-2c(C2CCCCC2)c2ccc(C(=O)NS(=O)(=O)N(C)C)cc21` (racemic) [Example 8, rac-(3aR,14bR)-10-cyclohexyl-N^7-(dimethylsulfamoyl)-13-methoxy-N^2,N^2,N^3a,N^3a-tetramethyl-1,14b-dihydroindolo[2,1-a]pyrrolo[3,4-d][2]benzazepine-2,3a,7(3H,4H)-tricarboxamide], the IC50 ([1]; reported as class) is reported as 20 to 500 nM and the EC50 ([2]; reported as class) is reported as 20 to 500 nM.
In the case of `COc1ccc2c(c1)C1CN(C(C)=O)CC1(C(=O)N(C)C)Cn1c-2c(C2CCCCC2)c2ccc(C(=O)NS(=O)(=O)N(C)C)cc21` (racemic) [Example 9, rac-(3aR,14bR)-2-acetyl-10-cyclohexyl-N^7-(dimethylsulfamoyl)-13-methoxy-N^3a,N^3a-dimethyl-1,2,3,14b-tetrahydroindolo[2,1-a]pyrrolo[3,4-d][2]benzazepine-3a,7(4H)-dicarboxamide], the IC50 ([1]; reported as class) is reported as 20 to 500 nM and the EC50 ([2]; reported as class) is reported as 20 to 500 nM.
In the case of `COc1ccc2c(c1)C1CN(C)CC1(C(=O)N(C)C)Cn1c-2c(C2CCCCC2)c2ccc(C(=O)NS(=O)(=O)N(C)C)cc21` (racemic) [Example 10, rac-(3aR,14bR)-10-Cyclohexyl-N^7-(dimethylsulfamoyl)-13-methoxy-N^3a,N^3a,2-trimethyl-1,2,3,14b-tetrahydroindolo[2,1-a]pyrrolo[3,4-d][2]benzazepine-3a,7(4H)-dicarboxamide], the IC50 [1] is reported as 37 nM and the EC50 [2] is reported as 26 nM.
